From ChEMBL document CHEMBL4627328, “Synthesis and in vitro evaluation of antimycobacterial and cytotoxic activity of new α,β-unsaturated amide, oxazoline and oxazole derivatives from l-serine” (Bioorg Med Chem Lett, 2020) come the findings set out here.

Values after ≈ are worked out from the molar mass of the structure shown.

Data set [1] deals with Mycobacterium tuberculosis. In words: Antimycobacterial activity against Mycobacterium tuberculosis H37Rv ATCC 27294 incubated for 5 days by alamar blue based colorimetric assay. Type of data set: functional. The note with it: H37Rv ATCC 27294, 120 h.
The nature of data set [2]: Cytotoxicity against monkey Vero cells assessed as cell viability at 50 ug/ml by WST-1 assay relative to control. Format: cell-based. The note with it: chlorocebus sabaeus, read-out: Activity. For orientation: Tetrazolium dyes change colour on reduction, which living cells bring about.
Data set [3] is described as follows: Cytotoxicity against monkey Vero cells assessed as cell viability at 100 ug/ml by WST-1 assay relative to control. Format: cell-based. As to conditions: chlorocebus sabaeus, read-out: Activity.

In data set [1], `O=C(/C=C/c1ccccc1)O/C(=N/C1CCCCC1)NC1CCCCC1` yielded a minimal inhibitory concentration (MIC) of over 282 µM. In addition, in data set [2], the viability at 50 ug/ml is 83.9%. The viability at 100 ug/ml in data set [3] worked out at 83.8%.
On the same counts, the results for `COC(=O)[C@@H]1COC(/C=C/c2ccc(C)cc2)=N1` are 25.4 µM (≈ 6.23 µg/mL), 85.1% and 17%.
On the same counts, the results for `COC(=O)c1coc(/C=C/c2ccccc2)n1` are 54.5 µM (≈ 12.5 µg/mL), 99.6% and 102%.
Taken in the same sequence, the figures for `Cc1ccc(/C=C/C(=O)O/C(=N/C2CCCCC2)NC2CCCCC2)cc1` were over 271 µM, 79.3% and 95.5%.
Molecule `CC[C@@H](CO)NCCN[C@@H](CC)CO` [ETHAMBUTOL] showed a minimum inhibitory concentration (MIC) in data set [1] of 15.2 µM (≈ 3.11 µg/mL).
Turning to `COC(=O)[C@H](COC(=O)/C=C/c1ccc(OC)cc1)NC(=O)/C=C/c1ccc(OC)cc1`, the MIC in data set [1] stood at 114 µM (≈ 50 µg/mL). For the same molecule, in data set [2], the viability at 50 ug/ml came out at 39.1%. Besides, in data set [3], the viability at 100 ug/ml worked out at 11.4%.
Taken in the same sequence, the figures for `COC(=O)c1coc(/C=C/c2ccc(F)cc2)n1` were 12.6 µM (≈ 3.12 µg/mL), 102% and 99%.
`COC(=O)[C@H](CO)NC(=O)/C=C/c1ccc(F)cc1` yielded a minimum inhibitory concentration (MIC) in data set [1] of over 374 µM.
For `COC(=O)[C@H](CO)NC(=O)/C=C/c1ccccc1`, in data set [1], the MIC was over 401 µM. Further, in data set [2], the viability at 50 ug/ml came to 97.1%. In addition, the viability at 100 ug/ml in data set [3] stood at 99.4%.
As for `COC(=O)[C@H](COC(=O)/C=C/c1ccc(C)cc1)NC(=O)/C=C/c1ccc(C)cc1`, in data set [1], inhibition of growth (MIC) required 123 µM (≈ 50 µg/mL). The viability at 50 ug/ml in data set [2] came out at 28.8%. Moreover, in data set [3], the viability at 100 ug/ml amounted to 18.7%.
In turn, `O=C(/C=C/c1ccc(F)cc1)O/C(=N/C1CCCCC1)NC1CCCCC1` showed an MIC in data set [1] of over 268 µM. The viability at 50 ug/ml in data set [2] came out at 82.5%. Also, the viability at 100 ug/ml in data set [3] turned out to be 85.5%.
As for `CO[C@H]1/C=C/O[C@@]2(C)Oc3c(C)c(O)c4c(O)c(c(/C=N/N5CCN(C)CC5)c(O)c4c3C2=O)NC(=O)/C(C)=C\C=C\[C@H](C)[C@H](O)[C@@H](C)[C@@H](O)[C@@H](C)[C@H](OC(C)=O)[C@@H]1C` [RIFAMPIN], in data set [1], it took 0.06 µM (≈ 0.0494 µg/mL) to inhibit growth (MIC).
In the case of `COC(=O)[C@H](COC(=O)/C=C/c1ccccc1)NC(=O)/C=C/c1ccccc1`, the MIC in data set [1] was over 264 µM. Further, in data set [2], the viability at 50 ug/ml was determined as 16.8%. Also, the viability at 100 ug/ml in data set [3] is 10.7%.
The molecule `COC(=O)[C@H](CO)NC(=O)/C=C/c1ccc(OC)cc1` returned a minimal inhibitory concentration (MIC) in data set [1] of over 358 µM. Further, the viability at 50 ug/ml in data set [2] is 100%. For the same molecule, in data set [3], the viability at 100 ug/ml is 103%.
On the same counts, the results for `COC(=O)[C@H](COC(=O)/C=C/c1ccc(F)cc1)NC(=O)/C=C/c1ccc(F)cc1` are 120 µM (≈ 50 µg/mL), 21.1% and 8.65%.
On the same counts, the results for `COC(=O)[C@@H]1COC(/C=C/c2ccc(OC)cc2)=N1` are 23.9 µM (≈ 6.24 µg/mL), 94.8% and 20.9%.
On the same counts, the results for `COC(=O)c1coc(/C=C/c2ccc(OC)cc2)n1` are 24.1 µM (≈ 6.25 µg/mL), 99.6% and 96.8%.
The molecule `COC(=O)[C@@H]1COC(/C=C/c2ccccc2)=N1` gave an MIC in data set [1] of 54.1 µM (≈ 12.5 µg/mL). Also, the viability at 50 ug/ml in data set [2] was determined as 68.6%. Further, the viability at 100 ug/ml in data set [3] came out at 12.4%.
In turn, `C[C@H]1COc2c(N3CCN(C)CC3)c(F)cc3c(=O)c(C(=O)O)cn1c23` [LEVOFLOXACIN] yielded an MIC in data set [1] of 0.54 µM (≈ 0.195 µg/mL).
Consider `COC(=O)[C@H](CO)NC(=O)/C=C/c1ccc(C)cc1`, for which, in data set [1], the MIC is over 380 µM. Besides, the viability at 50 ug/ml in data set [2] was 100%. For the same molecule, the viability at 100 ug/ml in data set [3] is 101%.
Taken in the same sequence, the figures for `COC(=O)c1coc(/C=C/c2ccc(C)cc2)n1` were 3.21 µM (≈ 0.781 µg/mL), 102% and 100%.
Taken in the same sequence, the figures for `COC(=O)[C@@H]1COC(/C=C/c2ccc(F)cc2)=N1` were 50.1 µM (≈ 12.5 µg/mL), 91.6% and 18.6%.

What is called MIC is the smallest concentration in the dilution series that meets the test's criterion for growth inhibition.
